# Reference: patent publication US20260151403A1, “NEK7 DEGRADERS AND METHODS OF USE THEREOF” (Captor Therapeutics S.A., priority 2022, published 2026)
# Key:
# [1] = target: T1, [NEK7]-[compound of formula (I)]-[CRBN/DDB1] complex (Homo sapiens, UniProt Q8TDX7+Q96SW2); assay: HTRF ternary complex assay; assay type: binding; conditions: dose-response, 180 min at 25° C.; for EC50: read-out: HTRF ternary complex Average pEC50 by molecule (converted)
# Protocol: The effect of the molecular glue compounds of the invention on the formation of a ternary complex composed of [NEK7]-[compound of formula (I)]-[CRBN/DDB1] was investigated.
# Mix solution of proteins and reagents was prepared: • 24 nM NEK7, 52.8 nM 6×His-CRBN/Strep-DDB1, 3 nM of Streptavidin-Eu cryptate […] and 6.67 nM of Anti-6×his-d2 […] was prepared in PPI Europium detection buffer (Cisbio) with 1 mM DTT.
# The tested compounds in dose-response were dispensed onto a white 384-well low volume plate (Greiner, 784075). DMSO was backfilled to all wells, resulting in a final DMSO content of 0.5%. Wells containing only DMSO served as background.
# The plate was sealed with transparent film and shaken using a VibroTurbulator for 60 sec at level 3.
# The plate was then spun down shortly (10 s, 1000 rcf) and incubated at 25° C. for 180 min.
# The read-out was performed with plate reader (Pherastar, BMG Labtech) in time resolved fluorescence mode. Filterset: TR 337 665 620.
# The results were analyzed as follows: • 1) an average of fluorescence for background signal was calculated and used as a negative control; • 2) raw fluorescence values for tested compounds were normalized against negative controls; • 3) saturation curve was fitted to specific binding with Hill slope model; • 4) EC50 and pEC50 values were determined.
# NEK7-HiBiT protein = NEK7-HiBiT protein (Homo sapiens, UniProt Q8TDX7); assay: NEK7-HiBiT degradation assay (Nano-Glo HiBiT Lytic Assay) in HEK293 NEK7-HiBiT cells; assay type: cell-based; conditions: 24 h, conc. 0.1, 1 and 10 μM tested, concentration of the table values not stated, mean of 3 technical replicates
# Protocol: HEK293 NEK7-HiBiT cells were generated using CRISPR-Cas9 system. HEK293 cells were transformed with pSpCas9-BB-2A-Puro v2.0 plasmid carrying gRNA targeting the N-terminus of NEK7 and ssODN template containing the HiBiT tag sequence with flanking homology sequences. Neon Transfection System (Thermo Fisher Scientific) was used for electroporation. HEK293 NEK7-HiBiT cells were cultured with DMEM Glutamax (Gibco) supplemented with 10% heat inactivated FBS (Gibco). After transfection the culture medium was changed to DMEM Glutamax with 10% heat-inactivated FBS and 1% Penicillin-Streptomycin (Biowest) supplemented with Puromycin (2 μg/ml; Invivogen) for clonal selection. In order to isolate single cell clones for further validation and analysis, limiting dilution cloning in 96-well plates was performed. When the single clones reached confluency, HiBiT Lytic Assay (Promega) was performed in order to identify HiBiT positive clones. The clone selected for further studies was verified and validated using genotyping and HiBiT Blotting (Promega).
# Selected clone of HEK293 NEK7-HiBiT cells was maintained in the DMEM-Glutamax medium supplemented with 10% of heat-inactivated FBS (Gibco) and 1% of Penicillin-Streptomycin Solution 100x (Biowest) at 37° C., 5% CO2 and subcultured every 2-3 days.
# For Nano-Glo HiBiT Lytic Assay HEK293 NEK7-HiBiT cells were seeded at the density 2×10^3 cells in triplicates in the 40 μL of growth medium per single well on 384 well plate (Greiner Bio-One). Compounds or DMSO were added to treatment plates using Echo555 Liquid Handler and incubated at 37° C., 5% CO2 for 24 hours. After incubation 40 μL of Nano-Glo HiBiT Lytic Reagent (prepared according to the manufacturer protocol) were added to 40 μL of the cell culture medium present in each well. The plate content was briefly mixed (460 rpm) on an orbital shaker to ensure cell lysis. The plate was left at RT protected from light for another 10 min to stabilize the luminescent signal. The luminescence signal was measured using CLARIOstar Multimode Plate Reader. Focus and gain were adjusted to DMSO treated cells. The results were calculated as the NEK7-HiBiT % relative to the DMSO control of 3 technical replicates relative to the DMSO control.
# HEK293 NEK7-HiBiT cells were treated with the compounds (conc. 0.1, 1 and 10 μM) or DMSO for 24 h. After incubation with compounds NEK7-HiBiT degradation was measured as a luminescence signal using CLARIOstar Multimode Plate reader.
# Additionally, compounds reducing NEK7-HiBiT protein level by >=50% at 0.1 μM, were also identified.
# [2] = target: T1, [NEK7]-[compound of formula (I)]-[CRBN/DDB1] complex; assay: AlphaLISA dose response ternary complex formation assay; assay type: binding; conditions: 1 μM compound, normalized to maximum signal of Compound 2 (positive control) and DMSO background; for activation at 1 µM: read-out: Normalized AlphaLISA ternary complex average signal at 1 μM molecule
# Protocol: The effect of the molecular glue compounds of the invention on the formation of a ternary complex composed of [NEK7]-[compound of formula (I)]-[CRBN/DDB1] was investigated with two methods: AlphaLISA dose response assay or HTRF ternary complex assay.
# Two types of protein solution were prepared: • 200 nM biotinylated NEK7, 40 μg/ml AlphaScreen Streptavidin-coated Donor Beads in HBS (10 mM HEPES, 150 mM NaCL, pH 7.4) buffer with 0.1% Tween-20 and 1 mM DTT, • 200 nM 6×His-CRBN/Strep-DDB1, 40 μg/ml AlphaLISA Anti-6×His Acceptor beads in HBS buffer with 0.1% Tween-20 and 1 mM DTT.
# The prepared solutions were incubated at room temperature for 30 min and then the solution containing the donor beads was mixed with the solution containing the acceptor beads.
# The tested compounds were dispensed onto a white 384-well AlphaPlate 384 SW. DMSO was backfilled to all wells, resulting in a final DMSO content of 2%. Wells containing only DMSO served as background. Next, 10 μl of solution with donor and acceptor beads was added to the wells.
# The plate was sealed with transparent film and shaken using a VibroTurbulator for 60 sec at room temperature, level 3. The plate was then spun down shortly (10 s, 1000 rcf, room temperature) and incubated at 25° C. for 30 min.
# The read-out was performed with PerkinElmer Enspire Multimode Plate Reader (method for AlphaLISA 384-well low volume, Filterset: λexc=680 nm, λem=615 nm).
# The results were analyzed as follows: • 1) an average of luminescence for background signal was calculated and used as a negative control; • 2) average of the maximum measured luminescence for Compound 2 was calculated and used as an internal positive control; • 3) raw luminescence values were normalized against positive and negative controls; • 4) Normalized responses to Compound 2 were determined.
# T1 sequence (Q8TDX7 whole entry): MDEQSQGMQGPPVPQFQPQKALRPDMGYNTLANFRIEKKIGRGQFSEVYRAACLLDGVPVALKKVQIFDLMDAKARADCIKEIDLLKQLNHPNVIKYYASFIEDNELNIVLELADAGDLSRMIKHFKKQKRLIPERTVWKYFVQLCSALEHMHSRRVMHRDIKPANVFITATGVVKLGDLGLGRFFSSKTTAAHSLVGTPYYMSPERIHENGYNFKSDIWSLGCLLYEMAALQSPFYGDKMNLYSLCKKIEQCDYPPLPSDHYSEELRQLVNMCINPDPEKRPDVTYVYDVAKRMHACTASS
# T1 sequence (Q96SW2 whole entry): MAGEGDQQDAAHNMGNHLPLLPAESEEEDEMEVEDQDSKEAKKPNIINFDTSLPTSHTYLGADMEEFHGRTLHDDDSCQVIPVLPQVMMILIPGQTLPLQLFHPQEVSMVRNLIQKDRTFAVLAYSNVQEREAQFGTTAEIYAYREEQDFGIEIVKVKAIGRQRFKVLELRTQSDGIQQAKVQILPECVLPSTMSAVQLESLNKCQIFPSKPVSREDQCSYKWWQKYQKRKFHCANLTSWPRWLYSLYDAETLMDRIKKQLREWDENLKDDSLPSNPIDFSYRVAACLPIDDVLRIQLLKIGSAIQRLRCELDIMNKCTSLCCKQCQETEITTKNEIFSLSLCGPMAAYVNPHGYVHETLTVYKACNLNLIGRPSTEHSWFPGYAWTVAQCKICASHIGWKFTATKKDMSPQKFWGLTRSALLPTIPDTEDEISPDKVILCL
# T1 sequence (Q16531 whole entry partner): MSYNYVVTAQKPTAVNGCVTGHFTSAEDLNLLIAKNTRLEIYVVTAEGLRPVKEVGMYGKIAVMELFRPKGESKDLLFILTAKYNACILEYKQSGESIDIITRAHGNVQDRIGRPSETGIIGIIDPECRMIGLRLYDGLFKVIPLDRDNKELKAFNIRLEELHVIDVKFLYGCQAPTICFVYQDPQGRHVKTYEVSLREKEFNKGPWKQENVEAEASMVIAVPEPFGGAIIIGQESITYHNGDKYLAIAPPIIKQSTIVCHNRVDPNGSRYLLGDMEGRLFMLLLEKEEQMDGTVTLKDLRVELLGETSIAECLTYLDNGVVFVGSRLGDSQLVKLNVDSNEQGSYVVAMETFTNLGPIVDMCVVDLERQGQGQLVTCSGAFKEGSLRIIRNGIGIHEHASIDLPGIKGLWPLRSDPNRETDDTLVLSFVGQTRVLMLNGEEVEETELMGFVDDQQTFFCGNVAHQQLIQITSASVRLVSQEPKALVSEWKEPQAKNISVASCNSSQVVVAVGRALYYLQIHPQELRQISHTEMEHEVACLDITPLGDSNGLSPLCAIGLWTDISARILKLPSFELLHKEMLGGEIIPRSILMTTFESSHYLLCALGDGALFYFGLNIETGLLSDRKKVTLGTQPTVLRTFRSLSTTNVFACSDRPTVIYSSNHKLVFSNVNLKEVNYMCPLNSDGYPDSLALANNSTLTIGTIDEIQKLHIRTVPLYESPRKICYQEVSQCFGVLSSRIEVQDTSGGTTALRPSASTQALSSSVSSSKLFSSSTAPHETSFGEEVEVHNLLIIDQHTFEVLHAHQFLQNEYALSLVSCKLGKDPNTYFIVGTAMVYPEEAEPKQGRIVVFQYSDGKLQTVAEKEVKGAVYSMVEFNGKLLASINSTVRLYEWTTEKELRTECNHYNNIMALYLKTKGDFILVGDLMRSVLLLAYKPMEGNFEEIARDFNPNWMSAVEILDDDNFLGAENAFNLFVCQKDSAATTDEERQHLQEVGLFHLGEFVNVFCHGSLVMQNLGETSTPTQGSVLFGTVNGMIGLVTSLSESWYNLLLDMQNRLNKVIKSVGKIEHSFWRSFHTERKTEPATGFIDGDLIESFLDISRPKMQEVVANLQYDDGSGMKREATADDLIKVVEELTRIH
# Chain of NEK7-HiBiT protein (Q8TDX7 whole entry): as the sequence (Q8TDX7 whole entry) above
# Chain of NEK7-HiBiT protein (Q96SW2 whole entry, further chain): as the sequence (Q96SW2 whole entry) above
# Chain of NEK7-HiBiT protein (Q16531 whole entry partner): as the sequence (Q16531 whole entry partner) above
SMILES,EC50 [1] [nM],activation at 1 µM [2] [%],Normalized AlphaLISA ternary complex average signal at 1 μM molecule [2],HTRF ternary complex Average pEC50 by molecule [1],Levels of NEK7-HiBiT Protein (as a % of DMSO control) (NEK7-HiBiT protein)
"O=C1CCC(N2C(=O)c3cccc4c(-c5ccccn5)ccc2c34)C(=O)N1 (centres unmarked) [28(2), 3-(2-oxo-6-(pyridin-2-yl)benzo[cd]indol-1 (2H)-yl)piperidine-2,6-dione]",> 3160,< 10,,,C (Levels of NEK7-HiBiT Protein > 50% and <75%)
"O=C1CCC(N2C(=O)c3ccc(-c4ccccn4)c4cccc2c34)C(=O)N1 (centres unmarked) [23(2), 3-(2-oxo-5-(pyridin-2-yl)benzo[cd]indol-1 (2H)-yl)piperidine-2,6-dione]",< 100,> 80,,,B (Levels of NEK7-HiBiT Protein > 25% and ≤50%)
"CCCCC1CCC(c2ccc3c(c2)CN(C2CCC(=O)NC2=O)C3=O)OC1 (single isomer, unassigned) [70 Isomer 1, 3-(5-(5-butyltetrahydro-2H-pyran-2-yl)-1-oxoisoindolin-2-yl)piperidine-2,6-dione]",> 3160,,D (Normalized activity < 10%),,D (Levels of NEK7-HiBiT Protein ≥ 75%)
"CC(=O)NC1CCC(c2ccc3c(c2)CN(C2CCC(=O)NC2=O)C3=O)NC1 (single isomer, unassigned) [33 Isomer 2, N-(6-(2-(2,6-dioxopiperidin-3-yl)-1-oxoisoindolin-5-yl)piperidin-3-yl)acetamide]",,,B (Normalized activity > 20% and <80%),++++ (7.0 > pEC50 > 6.5),B (Levels of NEK7-HiBiT Protein > 25% and ≤50%)
"CC1c2cc(-c3ccccn3)ccc2C(=O)N1C1CCC(=O)NC1=O (centres unmarked) [24(2), 3-(3-methyl-1-oxo-5-(pyridin-2-yl)isoindolin-2-yl)piperidine-2,6-dione]",100 to 316,> 80,,,A (Levels of NEK7-HiBiT Protein ≤ 25%)
"O=C1CCC(N2Cc3cc(-c4ccc(C(F)(F)F)cn4)ccc3C2=O)C(=O)N1 (centres unmarked) [16(2), 3-(1-oxo-5-(5-(trifluoromethyl)pyridin-2-yl)isoindolin-2-yl)piperidine-2,6-dione]",316 to 1000,> 80,,,A (Levels of NEK7-HiBiT Protein ≤ 25%)
"CC(=O)Nc1ccc(-c2ccc3c(c2)CN(C2CCC(=O)NC2=O)C3=O)nc1 (centres unmarked) [7(2), N-(6-(2-(2,6-dioxopiperidin-3-yl)-1-oxoisoindolin-5-yl)pyridin-3-yl)acetamide]",100 to 316,> 80,,,B (Levels of NEK7-HiBiT Protein > 25% and ≤50%)
"COc1ccnc(-c2ccc3c(c2)CN(C2CCC(=O)NC2=O)C3=O)c1 (centres unmarked) [27(2), 3-(5-(4-methoxypyridin-2-yl)-1-oxoisoindolin-2-yl)piperidine-2,6-dione]",316 to 1000,20 to 80,,,D (Levels of NEK7-HiBiT Protein ≥ 75%)
"CC(C)(C)C(=O)OCN1C(=O)CCC(N2Cc3cc(C4CCCCN4)ccc3C2=O)C1=O (centres unmarked) [Compound 63, (2,6-dioxo-3-(1-oxo-5-(piperidin-2-yl)isoindolin-2-yl)piperidin-1-yl)methyl pivalate]",,,,,A (Levels of NEK7-HiBiT Protein ≤ 25%)
"O=C1CCC(N2Cc3cc(C4CCC(Cc5ccccc5)CN4)ccc3C2=O)C(=O)N1 (single isomer, unassigned) [35 Isomer 2, 3-(5-(5-benzylpiperidin-2-yl)-1-oxoisoindolin-2-yl)piperidine-2,6-dione]",,,,,B (Levels of NEK7-HiBiT Protein > 25% and ≤50%)

# More lines, main results first:
EC50 [1] [nM],activation at 1 µM [2] [%],Normalized AlphaLISA ternary complex average signal at 1 μM molecule [2],HTRF ternary complex Average pEC50 by molecule [1],SMILES,Levels of NEK7-HiBiT Protein (as a % of DMSO control) (NEK7-HiBiT protein)
< 100,> 80,,,"O=C1CCC(N2Cc3cc(C4CCC(NC(=O)c5ccccc5)CN4)ccc3C2=O)C(=O)N1 (centres unmarked) [Compound 56, N-(6-(2-(2,6-dioxopiperidin-3-yl)-1-oxoisoindolin-5-yl)piperidin-3-yl)benzamide]",A (Levels of NEK7-HiBiT Protein ≤ 25%)
> 3160,< 10,,,"O=C1CCC(N2Cc3cc(C4CCCCN4)cc(F)c3C2=O)C(=O)N1 (centres unmarked) [Compound 24, 3-(7-fluoro-1-oxo-5-(piperidin-2-yl)isoindolin-2-yl)piperidine-2,6-dione]",D (Levels of NEK7-HiBiT Protein ≥ 75%)
> 3160,< 10,,,"Cc1cc(C2CCCCN2)cc2c1C(=O)N(C1CCC(=O)NC1=O)C2 (centres unmarked) [Compound 21, 3-(7-methyl-1-oxo-5-(piperidin-2-yl)isoindolin-2-yl)piperidine-2,6-dione]",D (Levels of NEK7-HiBiT Protein ≥ 75%)
1000 to 3160,20 to 80,,,"O=C1CCC(N2C(=O)c3ccc(C4CCCCN4)cc3C2=O)C(=O)N1 (centres unmarked) [Compound 1, 2-(2,6-dioxopiperidin-3-yl)-5-(piperidin-2-yl)isoindoline-1,3-dione]",A (Levels of NEK7-HiBiT Protein ≤ 25%)
> 3160,< 10,,,"O=C1CCC(N2Cc3cc(C4CCCCN4)sc3C2=O)C(=O)N1 (centres unmarked) [Compound 72, 3-(6-oxo-2-(piperidin-2-yl)-4,6-dihydro-5H-thieno[2,3-c]pyrrol-5-yl)piperidine-2,6-dione]",C (Levels of NEK7-HiBiT Protein > 50% and <75%)
100 to 316,20 to 80,,,"O=C1CCC(N2Cc3cc(C4CSCCN4)ccc3C2=O)C(=O)N1 (centres unmarked) [Compound 57, 3-(1-oxo-5-(thiomorpholin-3-yl)isoindolin-2-yl)piperidine-2,6-dione]",C (Levels of NEK7-HiBiT Protein > 50% and <75%)
